# ChEMBL document CHEMBL4373635, “Synthesis of novel vanillin derivatives: novel multi-targeted scaffold ligands against Alzheimer's disease” (Medchemcomm, 2019)
# Calls of active or inactive are those of the source. The calls are words filed in the database; no cut-off is given here.
# Experiments:
# SH-SY5Y [1] = assay: Cytotoxicity against human SH-SY5Y cells assessed as cell viability at 5 uM after 24 hrs by MTT assay; assay type: cell-based
# SH-SY5Y [2] = assay: Neuroprotective activity against human SH-SY5Y cells assessed as inhibition of H2O2-induced cell death at 5 uM preincubated for 24 hrs followed by H2O2 treatment and measured after 24 hrs by MTT assay relative to control; assay type: functional
# SH-SY5Y [3] = assay: Neuroprotective activity against human SH-SY5Y cells assessed as inhibition of H2O2-induced cell death at 1 uM preincubated for 24 hrs followed by H2O2 treatment and measured after 24 hrs by MTT assay; assay type: functional, cell-based
# SH-SY5Y [4] = assay: Cytotoxicity against human SH-SY5Y cells assessed as reduction in cell viability at 25 uM after 24 hrs by MTT assay; assay type: cell-based
# SH-SY5Y [5] = assay: Cytotoxicity against human SH-SY5Y cells assessed as reduction in cell viability after 24 hrs by MTT assay; assay type: cell-based
# [6] = molecular target: Amyloid-beta precursor protein (Homo sapiens) (UniProt P05067); assay: Inhibition of amyloid beta (1 to 42 ) (unknown origin) self aggregation at 10 uM after 24 hrs by thioflavin-T fluorescence method relative to control
# Chain of Amyloid-beta precursor protein (Homo sapiens) (P05067 whole entry): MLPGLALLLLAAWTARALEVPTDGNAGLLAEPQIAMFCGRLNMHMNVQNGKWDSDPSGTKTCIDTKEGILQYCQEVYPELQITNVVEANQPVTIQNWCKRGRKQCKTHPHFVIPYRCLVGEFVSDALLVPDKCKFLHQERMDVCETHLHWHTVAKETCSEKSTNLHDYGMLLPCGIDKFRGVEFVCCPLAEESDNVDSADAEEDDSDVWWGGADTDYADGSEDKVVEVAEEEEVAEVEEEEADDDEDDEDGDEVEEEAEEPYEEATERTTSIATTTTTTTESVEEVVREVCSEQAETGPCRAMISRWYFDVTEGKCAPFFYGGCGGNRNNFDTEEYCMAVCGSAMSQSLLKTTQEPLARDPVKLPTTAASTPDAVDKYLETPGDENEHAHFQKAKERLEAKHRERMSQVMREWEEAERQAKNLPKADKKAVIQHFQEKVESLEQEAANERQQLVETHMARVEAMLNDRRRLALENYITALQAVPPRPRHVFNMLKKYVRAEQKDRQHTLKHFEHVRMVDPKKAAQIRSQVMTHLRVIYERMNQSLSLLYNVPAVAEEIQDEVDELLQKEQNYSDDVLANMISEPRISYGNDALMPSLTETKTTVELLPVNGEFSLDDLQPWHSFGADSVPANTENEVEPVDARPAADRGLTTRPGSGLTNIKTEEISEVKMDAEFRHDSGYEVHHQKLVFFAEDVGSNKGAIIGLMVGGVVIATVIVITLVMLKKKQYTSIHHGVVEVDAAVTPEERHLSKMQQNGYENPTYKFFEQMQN
# [7] = Antioxidant activity assessed as reduction of ferric-tripyridyltriazine complex by measuring trolox equivalents at pH 3.5 after 30 mins under dark condition by FRAP assay; assay type: functional
# Acetylcholinesterase = Acetylcholinesterase (Electrophorus electricus, UniProt O42275); assay: Inhibition of Electrophorus electricus AChE using acetylthiocholine iodide as substrate preincubated for 10 mins followed by substrate addition and measured after 10 mins by Ellman's method
# Chain of Acetylcholinesterase (O42275 whole entry): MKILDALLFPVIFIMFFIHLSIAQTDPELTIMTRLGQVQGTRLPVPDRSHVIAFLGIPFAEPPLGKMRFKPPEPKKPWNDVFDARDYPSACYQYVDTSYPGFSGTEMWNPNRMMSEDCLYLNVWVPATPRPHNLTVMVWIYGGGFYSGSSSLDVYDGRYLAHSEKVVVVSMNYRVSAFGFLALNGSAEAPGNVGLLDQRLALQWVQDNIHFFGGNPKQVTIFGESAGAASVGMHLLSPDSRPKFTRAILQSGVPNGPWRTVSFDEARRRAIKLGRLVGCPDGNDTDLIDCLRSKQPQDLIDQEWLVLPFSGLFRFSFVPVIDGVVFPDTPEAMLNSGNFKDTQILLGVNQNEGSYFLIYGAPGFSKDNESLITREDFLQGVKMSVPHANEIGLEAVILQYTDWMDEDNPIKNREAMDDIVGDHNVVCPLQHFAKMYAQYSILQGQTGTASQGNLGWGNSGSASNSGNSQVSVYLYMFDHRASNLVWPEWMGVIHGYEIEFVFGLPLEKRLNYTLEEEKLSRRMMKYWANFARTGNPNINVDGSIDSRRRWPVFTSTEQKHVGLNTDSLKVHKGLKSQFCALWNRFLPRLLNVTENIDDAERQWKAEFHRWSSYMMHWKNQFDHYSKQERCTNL
# SH-SY5Y [8] = assay: Cytotoxicity against human SH-SY5Y cells assessed as cell viability at 12.5 uM after 24 hrs by MTT assay; assay type: cell-based
# SH-SY5Y [9] = assay: Neuroprotective activity against human SH-SY5Y cells assessed as H2O2-induced cell death at 0.01 to 0.1 uM preincubated for 24 hrs followed by H2O2 treatment and measured after 24 hrs by MTT assay; assay type: functional, cell-based
# [10] = Antioxidant activity assessed as AAPH radical scavenging activity by measuring trolox equivalents preincubated for 30 mins followed by AAPH addition and measured every 2 mins for 2 hrs by ORAC assay; assay type: functional
smiles,measurement,setting,value
COc1cc(CNc2ccc(Nc3c4c(nc5ccccc35)CCCC4)cc2)ccc1O,Activity,SH-SY5Y [1],Non-Toxic
same,inhibition at 5 µM,SH-SY5Y [2],30%
same,Activity,SH-SY5Y [3],Active
same,Activity,SH-SY5Y [4],Toxic
same,IC50,SH-SY5Y [5],45.1 µM
same,inhibition,[6],77.1%
same,Activity,[7],1.54 equiv
same,IC50,Acetylcholinesterase,2.13 µM
same,Activity,SH-SY5Y [8],Non-Toxic
same,Activity,SH-SY5Y [9],inactive
same,Activity,[10],6.4 equiv
COc1cc(/C=N/CCCN2C(=O)c3cccc4cccc(c34)C2=O)ccc1O,Activity,[7],0.07 equiv
same,IC50,Acetylcholinesterase,128 µM
same,Activity,[10],2.1 equiv
COc1cc(CNCCCN2C(=O)c3cccc4cccc(c34)C2=O)ccc1O,inhibition,[6],30.4%
same,Activity,[7],0.26 equiv
same,IC50,Acetylcholinesterase,10.1 µM
same,Activity,[10],3.9 equiv
COc1cc(CNCCCN2C(=O)c3cccc4cccc(c34)C2=O)cc(OC)c1O,inhibition,[6],33.2%
same,Activity,[7],1.45 equiv
same,IC50,Acetylcholinesterase,24.3 µM
same,Activity,[10],2 equiv
